# Data reported in patent US6469132B1, “Diblock copolymer and use thereof in a micellar drug delivery system” (McGill University, priority 1999, dated 2002).
# Values joined by “and” are separate entries in the source; they are usually repeats but may differ in a detail not shown here. Equal entries are not always repeated.
# What was measured:
# [1] = tested on: PC 12 rat pheochromocytoma cells; experiment: Cell differentiation assay: neurite-like outgrowth; format: cell-based
# Protocol: In each case, the degree of neurite-like outgrowth was taken to be 100% in the control wells of untreated PC 12 cells. The degree of differentiation in cell wells in the presence of NGF and/or drug is expressed as a percentage relative to 100% for the control.
# PC 12 cells were plated in 24 well plates at 37° C. in 5% CO2 and incubated in DMEM supplemented with 5% fetal bovine serum and the treatments described below. Neurite-like outgrowth in PC 12 cells was detected after a 48 hour period using a Nikon light microscope. For each data point 5 fields of 250-300 cells/well were analyzed. For the quantitation of neurite-like outgrowth the PC 12 cells were considered to have outgrowth if their processes were longer than the length of the diameter of the cell.
# A range of concentrations of either NGF (0.1 to 50 ng/mL), FK506 (1 to 500 nM) or L,685-818 (1 to 500 nM) alone or combinations of 0.5 or 5 ng/mL of NGF with either FK506 (5 to 500 nM) or L-685,818 (50 nM to 10 μM), were incubated with the PC 12 cells for a 48 hour incubation period. The wells with untreated cells were used as controls.
# The unfiltered solution of the micelle incorporated drug was added to the cell wells at different concentrations: a 10 μL aliquot of a FK506-micelle solution was added to each 0.5 mL cell well. The 10 μL aliquot was produced by diluting the 1.1×10^−5 moles/L FK506-PCL20-b-PEO44 micelle (1% w/w) stock solution. The final concentration of FK506 in the cell well was made to range from […]. In the same manner, a 10 uL aliquot of the L-685,818 micelle solution was added to each 0.5 mL cell well, such that final concentration in the well was made to range from 10 nM to 1 μM. In each case, 5 ng/mL NGF was also added to each cell well. Several controls were also used where the cells were treated with 5 ng/mL of NGF alone, 1% (w/w) PCL20-b-PEO44 micelles alone, 1% (w/w) PCL20-b-PEO44 micelles containing 1 nM FK 506 without NGF or 1% (w/w) PCL20-b-PEO44 micelles containing 10 nM L-685,818.
# [2] = Partition coefficient for pyrene between PCL-b-PEO micelles and water (fluorescence I3/I1 method); format: physicochemical; details: extrapolation to 100% water content; PCL-b-PEO (20-b-44) micelles
# Protocol: The degree of non-covalent incorporation of physical entrapment of a hydrophobic drug into a micelle is determined by the partition coefficient of the drug between the micellar core and the surrounding aqueous medium. The affinity of the PCL-b-PEO micelles for lipophilic compounds was assayed by the determination of the Kv for the hydrophobic model compound, pyrene, between the PCL-b-PEO micelles and water. This method has been previously used to determine the Kv of pyrene between polystyrene-b-polyacrylic acid micelles and water. This fluorescence method is based on pyrene's sensitivity to the hydrophobicity of its microenvironment. […]
# The fluorescence method used to determine the partition coefficient for pyrene between a mixed water/DMF solvent mixture (60-90% water content) and block copolymer micelles (concentration PCL20-b-PEO44 ranges from 1×10^−6 to 1×10^−2 g/g), at 25° C., has been described in detail elsewhere (Zhao, J. et al. (1997) Macromolecules, 30:7143-7150). […] Briefly, the intensity ratio of vibrational band three to vibrational band one (I3/I1) in the fluorescence emission spectrum of pyrene reflects the polarity of the surrounding environment of the probe molecules. […]
# Steady-state fluorescent spectra were measured using a SPEX Fluorolog 2 spectrometer in the right-angle geometry (90° collecting optics). […] For fluorescence emission spectra, λεξ was 339 nm. […]
# PC 12 cells = experiment: Cell uptake of pyrene incorporated micelles; format: cell-based, rat; details: 390 nm, zero time = 1, PCL14-b-PEO44 micelles
# Protocol: The in vitro biocompatibility of the PCL-b-PEO micelles (14-b-44, 20-b-44) was tested by incubating the micelles with a wide range of cell lines for both 24-hour and 48-hour periods. The Trypan blue and Alamar blue survival assays were then used to quantify the survival rates in the presence of the PCL-b-PEO micelles. The capability of the PCL-b-PEO micelle system to deliver a hydrophobic compound was first tested in vitro using pyrene as a model compound. The pyrene incorporated PCL-b-PEO micelles were incubated with PC 12 cells over a 24-hour period. At 0, 4, 8 and 24 hours, samples of the supernatant were studied by fluorescence in order to determine the quantity of pyrene remaining in the supernatant at each time point. Likewise, at each time point, cells were isolated and their fluorescence was examined under the fluorescence microscope in order to determine if the decrease in the fluorescence within the supernatant was accompanied by an increase in fluorescence within the cells.
# Pyrene incorporated micelles were prepared such that a total of 2×10^−7 moles/L of pyrene had been added to the 1% (w/w) micelle (PCL14-b-PEO44) solution, An aliquot of the micelle solution was incubated with PC 12 cells cultured in DMEM at 37° C., 5% CO2. At time 0, and 4, 8 and 24 hours, the fluorescence intensity (Perkin Elmer LS 50) of the supernatant was measured at 390 nm to determine the amount of pyrene remaining in the supernatant. Controls consisting of medium or medium and micelles alone were also measured. Following the removal of the aliquot of supernatant at each time point, the remaining supernatant was removed and the cells were washed three times with 100 uL of phosphate buffer saline. The cells were then gently scraped and fixed with aquamount on a slide and analyzed using a fluorescence microscope (Olympus BH-2).
# [3] = polystyrene-b-polyacrylic acid micelles; Zhao et al. 1997; cited from earlier work
# [4] = drug alone 1 to 500 nM, 48 h, untreated control = 100%
compound,measurement,setting,value
NGF: nerve growth factor,degree of neurite-like outgrowth,"[1]; 5 ng/mL NGF alone, 48 h, untreated control = 100%",160±5% and 180±6%
same,degree of neurite-like outgrowth,"[1]; NGF alone 0.1 to 50 ng/mL, 48 h, untreated control = 100%",110-260%
"CC[C@@H]1/C=C(\C)[C@@H](O)[C@H](C)C[C@H](OC)[C@H]2O[C@@](O)(C(=O)C(=O)N3CCCC[C@H]3C(=O)O[C@H](/C(C)=C/[C@@H]3CC[C@@H](O)[C@H](OC)C3)[C@H](C)[C@@H](O)CC1=O)[C@H](C)C[C@@H]2OC [L-685,818]",degree of neurite-like outgrowth,[1]; [4],~100%
same,effect of drug concentration on degree of differentiation,"[1]; drug alone, no NGF, 48 h",no effect on the degree of differentiation
same,potentiation of the effect of NGF on neurite-like outgrowth,"[1]; with 5 ng/mL NGF, PC 12 cell cultures",potentiate the effect of NGF on the outgrowth of PC 12 cells
c1cc2ccc3cccc4ccc(c1)c2c34 [pyrene],partition coefficient (Kv) for pyrene between PCL-b-PEO micelles and water,[2],~10^2
same,relative fluorescence intensity of pyrene in supernatant,PC 12 cells; after 4 hours,0.70 (±0.05)
same,relative fluorescence intensity of pyrene in supernatant,PC 12 cells; after 8 hours,0.60 (±0.05)
same,relative fluorescence intensity of pyrene in supernatant,PC 12 cells; after 24 hours,0.55 (±0.05)
same,partition coefficient for pyrene between PS-b-PAA micelles and water,[3],~10^5
C=CC[C@@H]1/C=C(\C)C[C@H](C)C[C@H](OC)[C@H]2O[C@@](O)(C(=O)C(=O)N3CCCC[C@H]3C(=O)O[C@H](/C(C)=C/[C@@H]3CC[C@@H](O)[C@H](OC)C3)[C@H](C)[C@@H](O)CC1=O)[C@H](C)C[C@@H]2OC [FK506],degree of neurite-like outgrowth,[1]; [4],~100%
same,degree of neurite-like outgrowth,"[1]; free FK506 1-100 nM with 5 ng/mL NGF, 48 h",220-380%
same,dose adequate to potentiate neurite-like outgrowth,"[1]; in vitro, PC12 cell cultures",1 nM
